Assay results as given in patent publication US20220128545A1, “METHODS AND COMPOSITIONS FOR ANALYZING PLATELETS BY MASS CYTOMETRY” (Children's Medical Center Corporation, priority 2018, published 2022).
Read-outs that look alike come from different tables or passages of the source. Bridge positions count the residues as written; N and C are the ends. Square brackets hold non-standard residues; d marks the D form. Peptide text beside a SMILES is read from it. hArg = N=C(N)NCCCC[C@H](N)C(=O)O; Mpa = O=C(O)CCS

How the values were obtained:
[1] = test system: platelet surface P-selectin (CD62P); experiment: cells; assay type: cell-based, human
Procedure: (§1) FIGS. 2A-2D depict a comparison of MC and FFC platforms for measurement of agonist-stimulated integrin αIIbβ3 activation (PAC1) and P-selectin expression (CD62P) on platelets. Citrate-anticoagulated blood from 3 separate healthy donors was treated with vehicle or the indicated concentrations of ADP (A, B) or thrombin receptor activating peptide (TRAP) (C, D); for 30 minutes in the presence of PAC1-FITC or […] antibodies to assess integrin αIIbβ3 activation (A, C) and CD62P-PE or CD62P-172Yb antibodies to assess a-granule secretion (B, D). Samples were fixed in 1% formaldehyde and analyzed by MC or FFC. Data were analyzed using a non-linear fit of log agonist vs. response; variable slope in GraphPad Prism 5. Results are expressed as a percentage of mean metal intensity (MMI; MC readout) or the mean fluorescence intensity (MFI; FFC readout) achieved with 200 μM adenosine diphosphate (ADP) or TRAP, respectively (means±SEM; n=2/3, with n=2 accounting for the linear region of the TRAP dose-response [concentrations 1.5-3.5 μM] and n=3 accounting for all other concentrations [0-1 μM & 5-200 μM]).
(§2) Blood was collected by venipuncture with a 21-gauge butterfly needle into evacuated tubes containing 3.2% sodium citrate. Blood was drawn from healthy volunteers or GT patients who were free from antiplatelet agents and non-steroidal anti-inflammatory drugs for 10 days prior to the donation. The blood draws were performed by the same phlebotomist. Complete blood cell counts were performed in a Sysmex XN-1000 Hematology Analyzer.
(§3) Whole blood FFC analysis of platelet activation was performed as previously described. Three color analysis was performed using two cocktails of fluorescently labeled antibodies: PE-conjugated anti-CD62P, FITC-conjugated PAC1 (directed against the high affinity conformation of integrin αIIbβ3) and PE-Cy5-conjugated anti-CD42b; or PE-conjugated anti-CD41a, FITC-conjugated anti-CD61 and PE-Cy5-conjugated anti-CD42b (see Table 2 for antibody information). Citrate-anticoagulated whole blood was treated with vehicle, TRAP or ADP at the indicated concentrations in the presence of the appropriate fluorescently labeled antibody cocktail for 30 minutes at ambient temperature. Samples were fixed in 1% formaldehyde/HEPES-saline buffer for 30 minutes prior to analysis in a FACSCalibur flow cytometer (BD Biosciences, San Jose, Calif.). Platelets were gated based on forward light scatter, side light scatter and CD42b expression (see FIG. 8 for FFC platelet gating strategy). A total of 15,000 platelet events per sample were collected. […]
(§4) Data were analyzed using GraphPad version 5.0 software (GraphPad Software, La Jolla, Calif.) and are presented as mean±standard error of the mean. […]

[2] = test system: platelet surface activated integrin αIIbβ3; experiment: cells; assay type: cell-based, human
Procedure: as §1, §2, §3, §4

[3] = test system: platelet surface P-selectin (CD62P); experiment: cells; assay type: cell-based, human; remark: listed apart in the source
Procedure: as §1, §2
(§5) A panel of metal-labeled antibodies directed against platelet antigens of interest was assembled (FIG. 1A). Antibody clones were well-characterized, widely used and purchased from reputable vendors. Platelets in whole blood were reacted with the panel (containing anti-CD9-171Yb, anti-CD29-176Yb, anti-CD31-145Nd, anti-CD36-150Nd, anti-CD42a-155Gd, anti-CD42b-163Dy, anti-CD41-149Sm, anti-CD62P-172Yb, anti-CD61-165Ho, anti-CD63-161Dy, anti-CD107a-166Er, anti-CD154-154Sm, anti-GPVI-152Sm and anti-PAC1-159Tb; see FIG. 1A, Materials, and Table 1 for antibody information) in the presence of vehicle (HT-BSA), TRAP or ADP at the indicated concentrations for 30 minutes (FIG. 1B). Samples were fixed in 1% formaldehyde/HEPES-saline solution containing 125 nM Iridium 191/193 Cell-ID DNA Intercalator for 30 minutes. […] Samples were passed through a 35 μm cell-strainer (Corning Inc, Corning, N.Y.) and analyzed on a Helios Mass Cytometer (Fluidigm Corporation, San Francisco, Calif.; FIG. 1C). […]
as §4

[4] = test system: platelet surface activated integrin αIIbβ3; experiment: cells; assay type: cell-based, human; remark: listed apart in the source
Procedure: as §1, §2, §5, §4

platelets in whole blood = experiment: MC panel of 12 additional platelet surface markers during TRAP or ADP stimulation; assay type: cell-based, human; conditions: 30 minutes; for Platelet surface CD41, CD61, CD63, CD9, CD107a and CD154 / Platelet surface CD42a and CD42b: agonist 0-200 μM; for Surface plasma membrane levels of CD31, CD36, CD29 and GPVI: varying agonist concentrations
Procedure: Citrate-anticoagulated blood from the same 3 separate healthy donors in FIGS. 2A-2D was simultaneously treated with vehicle or the indicated concentrations of TRAP (A) or ADP (B) for 30 minutes in the presence of a custom platelet-specific, metal-tagged antibody panel. This panel contained antibodies directed against CD41, CD61, CD63, CD9, CD107a, CD154, CD42a, CD42b, CD31, CD36, CD29 and GPVI. Samples were fixed in 1% formaldehyde and analyzed by MC. Data were analyzed using a non-linear fit of log agonist vs. response; variable slope or linear regression in GraphPad Prism 5. Results are expressed as a percentage of the mean metal intensity (MMI) achieved with 200 μM ADP or TRAP (means±SEM; n=2/3, with n=2 accounting for the linear region of the TRAP dose-response [concentrations 1.5-3.5 μM)] and n=3 accounting for all other concentrations [0-1 μM and 5-200 μM]). Statistical analysis: 1-way ANOVA was used in conjunction with a Dunnett multiple comparison test (all results compared to vehicle control) to indicate statistical significance; *P<0.05, **P<0.01 and ***P<0.001. Abbreviations: ADP, adenosine diphosphate; FFC, fluorescence flow cytometry; MC, mass cytometry; TRAP, thrombin receptor activating peptide.
A panel of metal-labeled antibodies directed against platelet antigens of interest was assembled (FIG. 1A). Antibody clones were well-characterized, widely used and purchased from reputable vendors. Platelets in whole blood were reacted with the panel (containing anti-CD9-171Yb, anti-CD29-176Yb, anti-CD31-145Nd, anti-CD36-150Nd, anti-CD42a-155Gd, anti-CD42b-163Dy, anti-CD41-149Sm, anti-CD62P-172Yb, anti-CD61-165Ho, anti-CD63-161Dy, anti-CD107a-166Er, anti-CD154-154Sm, anti-GPVI-152Sm and anti-PAC1-159Tb; see FIG. 1A, Materials, and Table 1 for antibody information) in the presence of vehicle (HT-BSA), TRAP or ADP at the indicated concentrations for 30 minutes (FIG. 1B). Samples were fixed in 1% formaldehyde/HEPES-saline solution containing 125 nM Iridium 191/193 Cell-ID DNA Intercalator for 30 minutes. Cells were washed two times in MilliQ deionized H2O to remove salts and resuspended in 0.5 mL of MilliQ deionized H20 containing EQ Four Element Calibration Beads (1:10 v/v [33,000 beads/mL]). Samples were passed through a 35 μm cell-strainer (Corning Inc, Corning, N.Y.) and analyzed on a Helios Mass Cytometer (Fluidigm Corporation, San Francisco, Calif.; FIG. 1C). Cell events were acquired at 300-500 events per second and >30,000 events were acquired in total. Platelets were gated based on DNA content (DNA-low) and CD41/CD61 expression (see FIG. 8 for the MC platelet gating strategy). High-dimensional analyses of platelet subpopulations were carried out using the visual stochastic neighbor embedding (viSNE) cluster analysis function in CYTOBANK™ software (www.cytobank.org). Experiments were carried out by the same scientist and all reagents were from the same lot.

[5] = molecular target: T1, activated integrin αIIbβ3 (Homo sapiens, UniProt P05106+P08514); experiment: Specificity of in-house metal-tagged PAC1 for integrin αIIbβ3 (agonist stimulation, eptifibatide blockade) by MC; assay type: cell-based; conditions: whole blood; for Platelet surface activated αIIbβ3 expression compared with unstimulated controls: 200 μM agonist, PAC1-159Tb
T1 construct: endogenous in cells; host or cells: platelets in citrate-anticoagulated human whole blood
T1 sequence (P08514 32-887 limits assumed): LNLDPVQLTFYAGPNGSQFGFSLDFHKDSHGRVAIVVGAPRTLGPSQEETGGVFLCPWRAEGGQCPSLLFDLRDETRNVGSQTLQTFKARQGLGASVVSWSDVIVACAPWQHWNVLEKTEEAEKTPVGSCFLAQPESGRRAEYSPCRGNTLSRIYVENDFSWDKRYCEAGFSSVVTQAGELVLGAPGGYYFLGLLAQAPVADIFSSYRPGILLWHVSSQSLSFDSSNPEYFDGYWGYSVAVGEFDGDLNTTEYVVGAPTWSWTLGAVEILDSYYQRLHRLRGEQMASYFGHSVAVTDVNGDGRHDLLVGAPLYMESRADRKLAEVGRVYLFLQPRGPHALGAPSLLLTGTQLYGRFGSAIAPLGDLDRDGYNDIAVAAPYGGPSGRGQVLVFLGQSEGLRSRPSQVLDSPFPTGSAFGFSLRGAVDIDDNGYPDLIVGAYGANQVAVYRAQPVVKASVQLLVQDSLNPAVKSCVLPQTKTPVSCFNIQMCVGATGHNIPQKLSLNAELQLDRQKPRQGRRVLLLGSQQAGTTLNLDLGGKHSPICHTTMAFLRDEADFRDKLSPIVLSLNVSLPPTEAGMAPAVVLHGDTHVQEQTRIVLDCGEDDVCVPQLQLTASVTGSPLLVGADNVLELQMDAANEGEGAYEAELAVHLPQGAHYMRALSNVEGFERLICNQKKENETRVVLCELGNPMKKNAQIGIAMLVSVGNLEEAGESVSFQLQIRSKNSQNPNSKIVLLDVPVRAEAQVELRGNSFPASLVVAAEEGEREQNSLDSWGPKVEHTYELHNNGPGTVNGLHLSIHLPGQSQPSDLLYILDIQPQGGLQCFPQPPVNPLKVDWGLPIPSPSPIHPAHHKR
T1 sequence (P08514 891-1039 limits assumed): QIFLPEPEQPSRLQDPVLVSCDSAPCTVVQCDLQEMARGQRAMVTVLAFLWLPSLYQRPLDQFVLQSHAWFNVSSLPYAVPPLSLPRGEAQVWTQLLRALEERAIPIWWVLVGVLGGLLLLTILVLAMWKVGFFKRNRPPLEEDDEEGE
T1 sequence (P05106 27-788): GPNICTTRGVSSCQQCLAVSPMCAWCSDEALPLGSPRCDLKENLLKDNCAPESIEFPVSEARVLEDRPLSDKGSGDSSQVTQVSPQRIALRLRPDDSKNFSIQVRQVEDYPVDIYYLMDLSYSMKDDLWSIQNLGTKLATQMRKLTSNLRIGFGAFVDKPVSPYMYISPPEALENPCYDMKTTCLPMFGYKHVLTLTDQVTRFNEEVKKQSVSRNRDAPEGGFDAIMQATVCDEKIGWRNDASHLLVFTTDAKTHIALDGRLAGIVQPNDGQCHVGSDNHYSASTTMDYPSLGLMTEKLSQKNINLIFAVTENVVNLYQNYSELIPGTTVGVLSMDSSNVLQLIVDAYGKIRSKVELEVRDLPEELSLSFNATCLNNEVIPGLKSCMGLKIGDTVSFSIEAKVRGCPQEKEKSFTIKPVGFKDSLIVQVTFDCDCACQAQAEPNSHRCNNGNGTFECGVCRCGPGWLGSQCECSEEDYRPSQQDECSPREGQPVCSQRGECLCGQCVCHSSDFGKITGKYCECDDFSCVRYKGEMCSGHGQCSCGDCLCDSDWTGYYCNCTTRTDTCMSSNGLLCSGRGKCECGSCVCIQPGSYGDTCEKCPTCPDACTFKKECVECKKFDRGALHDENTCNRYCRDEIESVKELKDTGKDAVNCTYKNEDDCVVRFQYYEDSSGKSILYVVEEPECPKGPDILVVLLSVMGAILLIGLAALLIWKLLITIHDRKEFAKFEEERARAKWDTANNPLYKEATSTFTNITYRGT
Source text: FIG. 6. depicts measuring the specificity of in-house metal-tagged PAC1 for integrin αIIbβ3. […] Samples were fixed in 1% formaldehyde and analyzed by MC. […] Statistical analysis: 1-way ANOVA was used in conjunction with a Bonferroni post-test (with all results compared to the MMI achieved with agonist stimulation) to indicate statistical significance; **P<0.01 and ***P<0.001.
as §5
To compare the MC and FFC platforms for platelet analysis a novel metal-tagged MC antibody panel was designed to target well-established surface markers on platelets (FIG. 1A, Table 1) including platelet surface P-selectin (monitored with anti-CD62P-172Yb) and platelet surface activated integrin αIIbβ3 (monitored with the activation-dependent monoclonal antibody PAC1, labeled in-house with 159Tb). The specificity of PAC1-159Tb for activated αIIbβ3 was assessed by its dependence on platelet activation for binding and by its blockade by the αIIbβ3 inhibitor, eptifibatide (FIG. 6A-6B).

Structure (SMILES)	EC50 [1]	EC50 [2]	EC50 [3]	EC50 [4]	Platelet surface CD41, CD61, CD63, CD9, CD107a and CD154 (platelets in whole blood)	Platelet surface CD42a and CD42b (platelets in whole blood)	Surface plasma membrane levels of CD31, CD36, CD29 and GPVI (platelets in whole blood)	Platelet surface activated αIIbβ3 expression compared with unstimulated controls [5]	Blockade of anti-PAC1-159Tb binding to activated integrin αIIbβ3 ([5]; eptifibatide 2.5 μg/mL, following TRAP/ADP (200 μM) stimulation)	EC50 ([1]; Homo sapiens, Platelet, 0.5 h, FFC, CD62P-PE, citrate whole blood of healthy donors, 30 minutes, read-out: EC50 for agonist-induced platelet surface P-selectin expression)	EC50 ([2]; Homo sapiens, Platelet, 0.5 h, FFC, anti-PAC1-FITC, citrate whole blood of healthy donors, 30 minutes, read-out: EC50 for agonist-induced platelet surface activated αIIbβ3)	EC50 ([3]; Homo sapiens, Platelet, 0.5 h, MC, CD62P-172Yb, citrate whole blood of healthy donors, 30 minutes, read-out: EC50 for agonist-induced platelet surface P-selectin expression)	EC50 ([4]; Homo sapiens, Platelet, 0.5 h, MC, anti-PAC1-159Tb, citrate whole blood of healthy donors, 30 minutes, read-out: EC50 for agonist-induced platelet surface activated αIIbβ3)
CC(C)C[C@H](NC(=O)[C@H](CC(C)C)NC(=O)[C@H](Cc1ccccc1)NC(=O)[C@@H](N)CO)C(=O)N[C@@H](CCCNC(=N)N)C(=O)N[C@@H](CC(N)=O)C(N)=O [TRAP, SFLLRN-NH2]	2300 nM	2100 nM	3400 nM	3700 nM	elevated in a dose-dependent manner	trend to be dose-dependently decreased	remained constant	significantly elevated					
N=C(N)NCCCC[C@@H]1NC(=O)CCSSC[C@@H](C(N)=O)NC(=O)[C@@H]2CCCN2C(=O)[C@H](Cc2c[nH]c3ccccc23)NC(=O)[C@H](CC(=O)O)NC(=O)CNC1=O [eptifibatide] ([Mpa][hArg]GDWPC-NH2; disulfide 1-7)									completely blocked				
Nc1ncnc2c1ncn2[C@@H]1O[C@H](COP(=O)(O)OP(=O)(O)O)[C@@H](O)[C@H]1O [ADP, Adenosine 5′-diphosphate]					elevated in a dose-dependent manner	stayed constant	remained constant	significantly elevated		1200 nM	600 nM	1300 nM	800 nM
